According to PMC8232766, “Chemical Composition and Immunomodulatory Activity of Essential Oils from Rhododendron albiflorum” (Molecules, 2021):

What was measured:
[1] = tested on: human neutrophils; conditions: cited from earlier work; for Inhibition of agonist-induced Ca2+ mobilization in human neutrophils: found previously; for Inhibition of agonist-induced neutrophil Ca2+ mobilization: previous studies
[2] = tested on: human neutrophils; parameters: method as in PMID 27586050, PMID 25959257; conditions: direct effect; previous studies; cited from earlier work
[3] = target: T1, FPR2-HL60 cells (Homo sapiens, UniProt P25090); assay: Inhibition of WKYMVM-induced Ca2+ influx in FPR2-HL60 cells; assay type: cell-based; conditions: pure compounds; 10 min preincubation; induced by 5 nM WKYMVM
T1 construct: expressed in transfected cells
T1 sequence (P25090 1-351): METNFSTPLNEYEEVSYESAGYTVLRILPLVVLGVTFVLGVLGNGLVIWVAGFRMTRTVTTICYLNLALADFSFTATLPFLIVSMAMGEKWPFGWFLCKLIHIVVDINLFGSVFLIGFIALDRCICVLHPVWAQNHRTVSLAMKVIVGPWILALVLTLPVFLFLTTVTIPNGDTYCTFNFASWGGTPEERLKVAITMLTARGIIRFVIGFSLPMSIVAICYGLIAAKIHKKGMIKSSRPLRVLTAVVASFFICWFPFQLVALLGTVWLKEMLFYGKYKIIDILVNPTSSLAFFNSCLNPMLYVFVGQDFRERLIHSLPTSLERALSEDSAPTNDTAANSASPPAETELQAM
Experimental: (§1) Human promyelocytic leukemia HL60 cells stably transfected with FPR1 (FPR1-HL60 cells) or FPR2 (FPR2-HL60 cells) were kindly provided by Dr. Marie-Josephe Rabiet, INSERM, Grenoble, France. These cells were cultured in RPMI 1640 medium containing 10% heat-inactivated fetal calf serum, 10 mM HEPES, 100 μg/mL streptomycin, 100 U/mL penicillin, and G418 (1 mg/mL). G418 was removed before assays were performed.
(§2) Changes in intracellular Ca^2+ concentrations ([Ca^2+]i) in human neutrophils were measured with a FlexStation 3 scanning fluorometer (Molecular Devices), as previously described. To assess the direct effects of test compounds or pure essential oils on Ca^2+ influx, the compounds/oils were added to the wells (final concentration of DMSO was 1%), and changes in fluorescence were monitored (λex = 485 nm, λem = 538 nm) every 5 s for 240 s at room temperature after addition of the test compound. To evaluate inhibitory effects of the compounds on FPR1/FPR2-dependent Ca^2+ influx, the compounds were added to the wells (final concentration of DMSO was 1%) with cells (human neutrophils or FPR1/FPR2 HL60 cells). The samples were preincubated for 10 min, followed by addition of 5 nM fMLF (for human neutrophils or FPR1-HL60 cells) or 5 nM WKYMVM (for FPR2-HL60 cells). The maximum change in fluorescence, expressed in arbitrary units over baseline, was used to determine the agonist response. Responses were normalized to the response induced by 5 nM fMLF or 5 nM WKYMVM, which were assigned as 100%.
(§3) For all Ca^2+ influx experiments, curve fitting (at least five or six points) and calculation of median effective concentration values (EC50 or IC50) were performed by nonlinear regression analysis of the dose–response curves generated using Prism 7 (GraphPad Software, Inc., San Diego, CA, USA).

[4] = target: T2, JNK3 (Homo sapiens, UniProt P53779); assay: KINOMEscan kinase Kd determination, JNK3; assay type: binding; conditions: maximum concentration of 33 µM
T2 construct: purchased Eurofins Pharma Discovery, San Diego, CA, USA (KINOMEscan service)
T2 sequence (P53779 whole entry): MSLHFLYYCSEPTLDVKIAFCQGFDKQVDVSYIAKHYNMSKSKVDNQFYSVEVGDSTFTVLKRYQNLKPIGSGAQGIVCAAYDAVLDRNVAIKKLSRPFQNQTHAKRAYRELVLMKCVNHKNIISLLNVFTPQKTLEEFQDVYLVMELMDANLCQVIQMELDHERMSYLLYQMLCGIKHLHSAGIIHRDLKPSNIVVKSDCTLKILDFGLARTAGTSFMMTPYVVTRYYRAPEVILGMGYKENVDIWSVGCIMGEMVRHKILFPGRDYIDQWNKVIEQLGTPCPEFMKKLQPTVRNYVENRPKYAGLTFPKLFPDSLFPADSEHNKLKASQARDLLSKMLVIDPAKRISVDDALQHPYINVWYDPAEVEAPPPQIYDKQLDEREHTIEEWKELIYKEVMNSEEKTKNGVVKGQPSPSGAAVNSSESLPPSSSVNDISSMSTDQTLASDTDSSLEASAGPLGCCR
Experimental: (§4) KINOMEscan®® was used to determine the dissociation constant (Kd) of the indicated sesquiterpenes for selected kinases (Eurofins Pharma Discovery, San Diego, CA, USA). […] Assays were performed in duplicate, and the average mean value is shown.

[5] = tested on: human neutrophils; assay: Neutrophil chemotaxis assay (fMLF-induced); assay type: cell-based; conditions: pure compounds, chemotaxis induced by 1 nM fMLF; for IC50: Homo sapiens, Neutrophil
Excerpt: (§5) For isolation of human neutrophils, blood was collected from healthy donors in accordance with a protocol approved by the Institutional Review Board at Montana State University (Protocol #MQ041017), as described previously. Isolated neutrophils were washed and resuspended in HBSS^–. Neutrophil preparations were routinely >95% pure and >98% viable. Neutrophils were obtained from multiple different donors (n = 8); however, the cells from different donors were never pooled during experiments.
Human neutrophils were resuspended in HBSS^+ containing 2% (v/v) heat-inactivated fetal bovine serum (2 × 10^6 cells/mL), and chemotaxis was analyzed in 96-well ChemoTx chemotaxis chambers (Neuroprobe, Gaithersburg, MD), as described previously. Curve fitting (at least eight to nine points) and calculation of median effective concentration values (IC50) were performed by nonlinear regression analysis of the dose-response curves generated using GraphPad Prism 8.

[6] = tested on: human neutrophils; assay: Inhibition of fMLF-induced Ca2+ influx in human neutrophils; assay type: cell-based; conditions: pure compounds, 10 min preincubation, induced by 5 nM fMLF; for IC50: Homo sapiens, Neutrophil
Excerpt: as §5, §2, §3

[7] = target: T3, FPR1-HL60 cells (Homo sapiens, UniProt P21462); assay: Inhibition of fMLF-induced Ca2+ influx in FPR1-HL60 cells; assay type: cell-based; conditions: pure compounds; 10 min preincubation; induced by 5 nM fMLF
T3 construct: expressed in transfected cells
T3 sequence (P21462 1-350): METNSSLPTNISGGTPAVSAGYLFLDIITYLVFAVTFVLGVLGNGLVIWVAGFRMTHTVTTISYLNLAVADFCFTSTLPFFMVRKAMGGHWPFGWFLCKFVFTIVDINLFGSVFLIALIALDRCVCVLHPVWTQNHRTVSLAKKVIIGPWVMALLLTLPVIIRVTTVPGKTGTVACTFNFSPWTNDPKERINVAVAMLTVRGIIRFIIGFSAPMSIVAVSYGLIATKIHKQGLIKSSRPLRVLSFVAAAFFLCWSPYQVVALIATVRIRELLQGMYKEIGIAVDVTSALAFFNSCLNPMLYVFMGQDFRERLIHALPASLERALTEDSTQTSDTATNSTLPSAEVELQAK
Experimental: as §1, §2, §3

[8] = tested on: human C20 microglial cells; assay: Inhibition of fMLF-induced Ca2+ influx in C20 microglial cells; assay type: cell-based; conditions: 10 min, pure compounds, 10 min incubation, induced by 10 μM fMLF
Experimental: (§6) Human C20 microglial cells were kindly provided by Dr. David Alvarez-Carbonell (Department of Molecular Biology and Microbiology, Case Western Reserve University, Cleveland, OH, USA); these are immortalized primary human microglial cells that maintain characteristics of primary microglial cells. C20 cells were grown at 37 °C and 5% CO2 in DMEM:F12 medium supplemented with 10% FBS, 2.5 mM L-glutamine, 110 mg/L sodium pyruvate, 15 mM HEPES, 100 μg/mL normocin, 100 μg/mL streptomycin, and 100 U/mL penicillin.
(§7) For analysis of Ca^2+ influx in C20 microglial cells, the cells were plated in 96-well black, clear bottom plates at 10^4 cells/well in DMEM/F12 medium containing 10% FBS. The cells were treated with 200 nM PMA for 24 h, and the medium was changed every day for 5 days. On day 5, the cells were loaded with FLIPR Calcium 5 (Molecular Devices) at a volume ratio of 1:1 for 30 min at 37 °C in the dark. The plates were then placed in a FlexStation 3 fluorometer, and basal fluorescence was measured (λex = 485 nm, λem = 538 nm). Essential oils or individual compounds of interest were added manually (final concentration of DMSO was 1%), and fluorescence was monitored for 2 min to assess the direct effects of these treatments on [Ca^2+]i. After a 10 min incubation at 37 °C, the fluorescence baseline was recorded again, and 10 µM fMLF was added to evaluate inhibitory effects on agonist-induced [Ca^2+]i. Responses were normalized to the response induced by 10 µM fMLF.
as §3

[9] = target: T4, MAPKAPK2 (Homo sapiens, UniProt P49137); assay: KINOMEscan kinase Kd determination, MAPKAPK2; assay type: binding; conditions: maximum concentration of 33 µM
T4 construct: purchased Eurofins Pharma Discovery, San Diego, CA, USA (KINOMEscan service)
T4 sequence (P49137 whole entry): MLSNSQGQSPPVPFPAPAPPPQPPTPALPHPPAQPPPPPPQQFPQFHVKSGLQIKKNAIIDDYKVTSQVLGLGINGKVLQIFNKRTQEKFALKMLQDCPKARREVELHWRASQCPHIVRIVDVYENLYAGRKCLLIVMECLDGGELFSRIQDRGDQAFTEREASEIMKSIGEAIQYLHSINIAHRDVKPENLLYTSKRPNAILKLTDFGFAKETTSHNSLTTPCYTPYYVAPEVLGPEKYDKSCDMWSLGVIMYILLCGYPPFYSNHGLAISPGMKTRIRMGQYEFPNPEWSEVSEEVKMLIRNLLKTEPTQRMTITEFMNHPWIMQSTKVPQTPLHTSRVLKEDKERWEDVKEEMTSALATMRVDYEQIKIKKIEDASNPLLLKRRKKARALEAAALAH
Experimental: as §4

[10] = tested on: HL60 cells; assay: Cytotoxicity assay (CellTiter-Glo) in HL60 cells; assay type: cell-based, human; conditions: 30 min, oils up to 25 µg/mL, compounds up to 25 µM
Experimental: Cytotoxicity of essential oils and pure compounds was analyzed in human promyelocytic HL60 cells using a CellTiter-Glo Luminescent Cell Viability Assay Kit (Promega), as described previously.

[11] = tested on: human C20 microglial cells; assay: Ca2+ influx (direct effect) in C20 microglial cells; assay type: cell-based; conditions: pure compounds, direct effect on [Ca2+]i, mean ± SD of three experiments; for EC50: Homo sapiens
Experimental: as §6, §7, §3

[12] = tested on: human neutrophils; assay: Ca2+ influx (direct effect) in human neutrophils; assay type: cell-based; conditions: pure compounds, direct effect on [Ca2+]i, mean ± SD of three experiments; for EC50: Homo sapiens, Neutrophil
Excerpt: as §5, §2, §3

[13] = target: T5, PIM1 (Homo sapiens, UniProt P11309); assay: KINOMEscan kinase Kd determination, PIM1; assay type: binding; conditions: maximum concentration of 33 µM
T5 construct: purchased Eurofins Pharma Discovery, San Diego, CA, USA (KINOMEscan service)
T5 sequence (P11309 whole entry): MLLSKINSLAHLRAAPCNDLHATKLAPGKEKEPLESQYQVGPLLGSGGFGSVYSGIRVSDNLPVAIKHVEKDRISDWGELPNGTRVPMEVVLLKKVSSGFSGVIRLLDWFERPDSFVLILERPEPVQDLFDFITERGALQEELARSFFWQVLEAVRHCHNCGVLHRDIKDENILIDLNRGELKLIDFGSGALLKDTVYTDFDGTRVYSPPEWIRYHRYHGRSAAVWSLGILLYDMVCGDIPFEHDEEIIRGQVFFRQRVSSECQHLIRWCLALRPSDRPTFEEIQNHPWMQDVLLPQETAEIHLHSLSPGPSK
Experimental: as §4

Compound: C=C1/C=C/[C@H](C(C)C)CC/C(C)=C/CC1 [germacrene D]
- Inhibition of agonist-induced Ca2+ mobilization in human neutrophils [1]: inhibited

Compound: C=C1CCC2(C(C)C)CC12 (stereo not drawn) [sabinene]
- Inhibition of agonist-induced neutrophil Ca2+ mobilization [1]: no inhibitory effect
- Activation of neutrophil Ca2+ mobilization [2]: no activating effects

Compound: C=C1CC[C@@H]2[C@H]([C@H]3[C@H]1CC[C@]3(C)O)C2(C)C [Spathulenol, spathulenol]
- IC50 [3]: 31.6 ± 5.3 µM
- Binding affinity (Kd) toward JNK3 [4]: did not observe any binding activity
- IC50 [5]: 4.9 ± 0.8 µM
- IC50 [6]: 36.2 ± 8.2 µM
- IC50 [7]: 32.2 ± 6.4 µM
- IC50 [8]: 9.8 ± 3.4 µM
- Binding affinity (Kd) toward MAPKAPK2 [9]: did not observe any binding activity
- Cell viability (cytotoxicity), 30 min incubation [10]: minimal effects on cell viability
- EC50 [11]: > 50 µM
- Ca2+ Influx C20 cells EC50 [11]: inactive or had very low activity
- EC50 [12]: 39.4 ± 9.5 µM
- Binding affinity (Kd) toward PIM1 [13]: did not observe any binding activity

Compound: C/C1=C\CC/C(C)=C/CC(C)(C)/C=C/C1 [α-humulene]
- Inhibition of agonist-induced Ca2+ mobilization in human neutrophils [1]: inhibited

Compound: C=CC(=C)CCC=C(C)C [myrcene]
- Inhibition of agonist-induced neutrophil Ca2+ mobilization [1]: no inhibitory effect
- Activation of neutrophil Ca2+ mobilization [2]: no activating effects

Compound: C=CC(C)(O)CCC=C(C)C (stereo not drawn) [linalool]
- Inhibition of agonist-induced neutrophil Ca2+ mobilization [1]: no inhibitory effect
- Activation of neutrophil Ca2+ mobilization [2]: no activating effects

Compound: CC1=CC=C(C(C)C)CC1 [α-terpinene]
- Inhibition of agonist-induced neutrophil Ca2+ mobilization [1]: no inhibitory effect
- Activation of neutrophil Ca2+ mobilization [2]: no activating effects

Compound: CC1=CCC(C(C)C)=CC1 [γ-terpinene]
- Inhibition of agonist-induced neutrophil Ca2+ mobilization [1]: no inhibitory effect
- Activation of neutrophil Ca2+ mobilization [2]: no activating effects

Compound: C=C1CC/C=C(\C)CC[C@@H]2[C@@H]1CC2(C)C [β-caryophyllene]
- Inhibition of agonist-induced Ca2+ mobilization in human neutrophils [1]: inhibited

Compound: CC1=CCC(=C(C)C)CC1 [terpinolene]
- Inhibition of agonist-induced neutrophil Ca2+ mobilization [1]: no inhibitory effect
- Activation of neutrophil Ca2+ mobilization [2]: no activating effects

Compound: C=C1CCC2CC1C2(C)C (stereo not drawn) [β-pinene]
- Inhibition of agonist-induced neutrophil Ca2+ mobilization [1]: no inhibitory effect
- Activation of neutrophil Ca2+ mobilization [2]: no activating effects

Compound: Cc1ccc(C(C)C)cc1 [p-cymene]
- Inhibition of agonist-induced neutrophil Ca2+ mobilization [1]: no inhibitory effect
- Activation of neutrophil Ca2+ mobilization [2]: no activating effects

Compound: CC1=CCC(O)(C(C)C)CC1 (stereo not drawn) [terpinen-4-ol]
- Inhibition of agonist-induced neutrophil Ca2+ mobilization [1]: no inhibitory effect
- Activation of neutrophil Ca2+ mobilization [2]: no activating effects

Compound: C=C1C=CC(C(C)C)CC1 (stereo not drawn) [β-Phellandrene, β-phellandrene]
- FPR2-HL60 Ca2+ Influx IC50 [3]: no effect
- IC50 [3]: > 50 µM
- IC50 [5]: > 50 µM
- Neutrophils Chemotaxis IC50 [5]: inactive
- IC50 [6]: > 50 µM
- Neutrophils Ca2+ Influx IC50 [6]: no effect
- FPR1-HL60 Ca2+ Influx IC50 [7]: no effect
- IC50 [7]: > 50 µM
- IC50 [8]: > 50 µM
- EC50 [11]: > 50 µM
- Ca2+ Influx C20 cells EC50 [11]: inactive
- EC50 [12]: > 50 µM
- Ca2+ Influx Neutrophils EC50 [12]: inactive

Compound: C=C(C)[C@H]1CC=C(C)CC1 [limonene]
- Inhibition of agonist-induced neutrophil Ca2+ mobilization [1]: no inhibitory effect
- Activation of neutrophil Ca2+ mobilization [2]: no activating effects

Compound: C=C1C2CCC(C2)C1(C)C (stereo not drawn) [camphene]
- Inhibition of agonist-induced neutrophil Ca2+ mobilization [1]: no inhibitory effect

Compound: CC1=CCC2CC1C2(C)C (stereo not drawn) [α-pinene]
- Inhibition of agonist-induced neutrophil Ca2+ mobilization [1]: no inhibitory effect
- Activation of neutrophil Ca2+ mobilization [2]: no activating effects
